Reference: patent publication US9738786B2, “Dyes for labelling molecular ligands” (ILLUMINA CAMBRIDGE LIMITED, priority 2011, dated 2017)

Experiments:
Format in all cases: physicochemical
[1] = Fluorescence of dye solutions in water
[2] = Absorption spectra of dye solutions in water; conditions: for absorption maximum: in water
[3] = Self-quenching of fluorescence with increasing dye/protein ratio (FIG. 1); conditions: relative to dye B with six sulfonic groups
[4] = Photo-stability of dye solutions in water under irradiation
[5] = Stability of Dye 5A and 5B versus commercial dyes (FIG. 3)
[6] = Stability over time (optical density of solution); conditions: after 14 days
[7] = Spectral properties of dye 9 (ScanMix)
Method: [drawing 69] 3 ml of acetic anhydride and 0.3 g triethylamine were heated 20 minutes at 110° C., acetic anhydride-removed under reduced pressure then the product precipitated with diethyl ether. The product was purified by HPLC. The absorption maximum of equimolar solutions in ScanMix of new dye 9 was 536 nm, 0.162 a.u.
A mixture of 0.39 g (1 mmol) of 4-ethyl-2-(2-anilino)vinyl-oxazolo[4,5-b]pyridinium iodide, 0.35 g (1 mmol) 2,3,3-trimethyl-1-(5-carboxypentyl)-3H-indolium-5-sulfonate, 3 ml of acetic anhydride and 0.13 g of sodium acetate was heated 20 minutes at 110° C. Acetic anhydride was removed under reduced pressure then the product precipitated with diethyl ether. The product was purified by flash column. […] This new dye 9 (max 583 nm, 447 a.u.) has stronger fluorescence compared with DG527 (594 nm, 401 a.u.).

[8] = Table 1, symmetrical dyes, solutions in water
[9] = in water, same optical density, excitation at 545 nm

Molecule: 1,1,3-trimethyl-3-(3-sulfophenyl)-1H-benzo[e]indolium-disulfonate [CP-13B]
- fluorescence in water ([1]; water): strong fluorescence

Molecule: CCN1/C(=C/C=C(/C=C/C2=[N+](CC)c3cc(S(=O)(=O)O)c4cc(S(=O)(=O)O)ccc4c3C2(C)C)c2ccc(C(=O)O)cc2)C(C)(C)c2c1cc(S(=O)(=O)[O-])c1cc(S(=O)(=O)O)ccc21 [Dye 6]
- relative fluorescence intensity [1]: higher relative fluorescence intensity
- absorption maximum [2]: 673 nm

Molecule: CC1(C)C(/C=C/C=C/C=C2/N(c3ccccc3)c3ccccc3C2(C)C)=[N+](c2ccccc2)c2ccccc21 [S0 (2), reference compound]
- Fluorescence intensity, % ([1]; Table 1, symmetrical dyes in water, S0 (2) = 100): 100%
- Fluorescence max, nm [1, 8]: 674 nm
- Absorption max, nm [2, 8]: 649 nm

Molecule: CC1(C)C(/C=C/C=C/C=C2/N(c3cccc(S(=O)(=O)O)c3)c3cc(S(=O)(=O)[O-])c4cc(S(=O)(=O)O)ccc4c3C2(C)C)=[N+](CCCCCC(=O)O)c2ccc(S(=O)(=O)O)cc21 [NR665]
- fluorescence strength relative to Dy681 ([1]; in water): more than 3 times
- fluorescence max ([1]; water): 687 nm
- absorption maximum [2]: 664 nm

Molecule: CC[N+]1=C(/C=C/C=C/C=C2/N(CCCCCC(=O)O)c3ccc(S(=O)(=O)O)cc3C2(C)C)C(C)(C)c2cc(S(=O)(=O)[O-])ccc21 [dye A]
- self-quenching with increasing dye concentration [3]: more readily self-quenched

Molecule: CC1(C)C(/C=C/C(=C/C=C2/N(c3cccc(S(=O)(=O)[O-])c3)c3ccc(S(=O)(=O)[O-])cc3C2(C)C)c2ccc(C(=O)O)cc2)=[N+](c2cccc(S(=O)(=O)[O-])c2)c2ccc(S(=O)(=O)[O-])cc21.[Na+].[Na+].[Na+] [Dye 1]
- remaining initial fluorescence intensity ([4]; solution in water, after 25 days of irradiation): 85%
- photostability relative to Alexa 647 ([4]; solutions in water): improved photostability
- absorption maximum [2]: 658 nm

Molecule: CC1(C)C(/C=C/C(=C/C=C2/N(c3cccc(S(=O)(=O)O)c3)c3ccc4c(S(=O)(=O)[O-])cc(S(=O)(=O)O)cc4c3C2(C)C)c2ccc(C(=O)O)cc2)=[N+](c2cccc(S(=O)(=O)O)c2)c2ccc3c(S(=O)(=O)O)cc(S(=O)(=O)O)cc3c21 [Dye 5A]
- fluorescence intensity compared with Dy681 and Dy682 [1]: higher
- shift of fluorescence maximum compared with Dy681 and Dy682 [1]: red shifted
- stability compared with commercial dyes [5]: better stability
- absorption maximum [2]: 686 nm

Molecule: CCN1C(=CC=CC2=[N+](CCCCCC(=O)O)c3ccc(S(=O)(=O)O)cc3C2(C)C)C(C)(C)c2cc(S(=O)(=O)[O-])ccc21 [Cy3, reference compound]
- fluorescence intensity [1, 9]: 422 a.u.
- wavelength of fluorescence maximum [1, 9]: 565 nm
- optical density remaining [6]: 85%

Molecule: CC[n+]1cccc2oc(/C=C/C=C/C=C3/N(CCCCCC(=O)O)c4ccc(S(=O)(=O)[O-])cc4C3(C)C)nc21 [Dye 9]
- fluorescence intensity [7]: 447 a.u.
- fluorescence max [7]: 583 nm
- absorption maximum ([7]; compared to laser excitation wavelength (532 nm)): about 536 nm
- absorbance at absorption maximum ([7]; equimolar solutions in ScanMix): 0.162 a.u.
- absorption maximum ([7]; equimolar solutions in ScanMix): 536 nm

Molecule: CC1(C)C(/C=C/C=C2/N(c3cccc(S(=O)(=O)O)c3)c3cc(S(=O)(=O)[O-])c4cc(S(=O)(=O)O)ccc4c3C2(C)C)=[N+](CCCCCC(=O)O)c2ccc(S(=O)(=O)O)cc21 [Example XX]
- absorption maximum [2]: 567 nm
